Measurements as given in patent US8791118B2, “Pyridopyrazines as highly selective ras-Raf-Mek-Erk signal transduction pathway inhibitors” (Aeterna Zentaris GmbH, priority 2011, dated 2014).

What was measured:
[1] = biological target: Erk2 (Homo sapiens, UniProt P28482); experiment: Erk2 alpha kinase assay (cell-free, ALPHA technology); assay type: biochemical; conditions: 10 μM ATP
Procedure: The inhibitory effect of the compounds according to the invention was tested on various serine/threonine, tyrosine and lipid kinases in enzymatic assays. Recombinant human kinases such as, for example, Erk2, were used in this case, partly as full-length kinases, partly as shortened fragments, but at least consisting of the functional kinase domains. The commercial kinase proteins (Proqinase, Upstate) were used as recombinant fusion proteins with GST (glutathion-S-transferase) or His-Tag. Depending on the type of substrate, the various kinase reactions were quantified by means of suitable ALPHA™ beads (Perkin-Elmer). The substance testing is described in detail hereinafter for the Erk assay. […] a) MAPK-ALPHAs (e.g. […] The fluorescence was detected the following morning in a Envision plate reader (Perkin-Elmer). The %-inhibition values per substance concentration were calculated by means of the following formula from the raw data determined in the Envision plate reader[…]: Eight determinations were made for each control and two for the substance samples. […] The IC50 values were determined using GraphPadPrism.

[2] = tested on: Hct116; experiment: XTT assay for anti-proliferative effect; assay type: cell-based; conditions: Homo sapiens, HCT-116; Hct116 tumour cell line, ~48 h incubation
Procedure: The principle of this test is based on the intracellular reduction of the tetrazolium dye XTT (sodium 3′-[1-(phenylaminocarbonyl)-3,4-tetrazolium]-bis(4-methoxy-6-nitro)benzene sulfonic acid, Sigma) to a formazan dye by mitochondrial dehydrogenases. The dye is only formed by metabolically active cells and its photometrically measurable intensity is a quantitative indicator for the presence of living cells. The reduction of dye formation by incubation of the cells with substances serves as a parameter for the anti-proliferative effect.
The tumour cell lines (ATCC) were injected into 96-well microtitre plates in a defined cell number (1250 cells/well for Hct116) and then incubated overnight in an incubator at 37° C., 5% CO2 and 95% air humidity. The test substances were prepared as stock solutions (10 mM) in DMSO. To determine the EC50 values the potential inhibitor substances were added to the cells in half-logarithmically graded dilutions, resulting in final concentrations of 1.58 nM-50 μM. The cell plates were then incubated for ˜48 h in an incubator at 37° C., 5% CO2 and 95% air humidity.
For the detection reaction the substrate XTT was mixed with PMS (N-Methyl dibenzopyrazine methylsulfate, Sigma) and added to the cells so that a final concentration of 325 μg XTT/ml and 2.5 μg PMS/ml was obtained. It was then incubated for 3 h at 37° C., 95% air humidity. The formazan salt formed by the cellular dehydrogenases could then be quantified by adsorption at 490 nm.
The % inhibition value was evaluated by means of the following formula from the values for the optical densities measured in each case at 490 nm:
Eight determinations were made for each control and two for the substance samples. The 0% control contains no cells, the 100% control (proliferation control) contains no test substance. The EC50 values were determined using GraphPadPrism.

Chain of Erk2 (P28482 2-360 limits assumed): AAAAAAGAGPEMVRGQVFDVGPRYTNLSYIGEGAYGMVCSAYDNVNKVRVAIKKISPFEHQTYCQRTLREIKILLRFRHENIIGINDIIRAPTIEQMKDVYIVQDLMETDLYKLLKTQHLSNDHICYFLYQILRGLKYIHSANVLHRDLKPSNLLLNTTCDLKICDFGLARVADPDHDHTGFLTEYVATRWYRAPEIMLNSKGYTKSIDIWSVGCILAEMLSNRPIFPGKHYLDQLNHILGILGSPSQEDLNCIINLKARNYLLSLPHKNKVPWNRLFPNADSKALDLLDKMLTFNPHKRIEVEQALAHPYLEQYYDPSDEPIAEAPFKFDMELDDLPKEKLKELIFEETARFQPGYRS

| IC50 [1] [nM] | EC50 [2] [nM] | melting point | SMILES |
| --- | --- | --- | --- |
| 4 | 337 | 198 to 201 °C | Cn1cc(-c2cnc3ccc(NC(=O)NCCCCc4ccccc4)nc3n2)cn1 [Compound 155, 1-[3-(1-Methyl-1H-pyrazol-4-yl)-pyrido[2,3-b]pyrazin-6-yl]-3-(4-phenyl-butyl)-urea] |
| 1 | – | 168 to 170 °C | COc1c(CO)cccc1-c1cnc2ccc(NC(=O)N[C@H](C)CCCc3ccccc3)nc2n1 [Compound 158, 1-[3-(3-Hydroxymethyl-2-methoxy-phenyl)-pyrido[2,3-b]pyrazin-6-yl]-3-((R)-1-methyl-4-phenyl-butyl)-urea] |
| 1 | 844 | 231 to 232 °C | O=C(NCCCCc1ccccc1)Nc1ccc2ncc(-c3cn[nH]c3)nc2n1 [Compound 159, 1-(4-Phenyl-butyl)-3-[3-(1H-pyrazol-4-yl)-pyrido[2,3-b]pyrazin-6-yl]-urea] |
| 1 | 420 | 233 to 235 °C | O=C(NCCCCc1ccccc1)Nc1ccc2ncc(-c3ccc(O)cc3)nc2n1 [Compound 160, 1-[3-(4-Hydroxy-phenyl)-pyrido[2,3-b]pyrazin-6-yl]-3-(4-phenyl-butyl)-urea] |
| 2 | – | 161 to 163 °C | COc1ncccc1-c1cnc2ccc(NC(=O)N[C@H](C)CCCc3ccccc3)nc2n1 [Compound 161, 1-[3-(2-Methoxy-pyridin-3-yl)-pyrido[2,3-b]pyrazin-6-yl]-3-((R)-1-methyl-4-phenyl-butyl)-urea] |
| 2 | 557 | 204 to 208 °C | CC(CCCc1ccccc1)NC(=O)Nc1ccc2ncc(-c3cnn(C)c3)nc2n1 (stereo not drawn) [Compound 164, 1-(1-Methyl-4-phenyl-butyl)-3-[3-(1-methyl-1H-pyrazol-4-yl)-pyrido[2,3-b]pyrazin-6-yl]-urea] |
| 3 | – | 201 to 203 °C | C[C@H](CCCc1ccccc1)NC(=O)Nc1ccc2ncc(N3CCOCC3)nc2n1 [Compound 166, 1-((R)-1-Methyl-4-phenyl-butyl)-3-(3-morpholin-4-yl-pyrido[2,3-b]pyrazin-6-yl)-urea] |
| 3 | – | 187 to 190 °C | C[C@H](CCCc1ccccc1)NC(=O)Nc1ccc2ncc(-c3ccc(CO)cc3)nc2n1 [Compound 167, 1-[3-(4-Hydroxymethyl-phenyl)-pyrido[2,3-b]pyrazin-6-yl]-3-((R)-1-methyl-4-phenyl-butyl)-urea] |
| 3 | 903 | – | C[C@H](CCCc1ccccc1)NC(=O)Nc1ccc2ncc(-c3cnn(CCN4CCOCC4)c3)nc2n1 [Compound 168, 1-((R)-1-Methyl-4-phenyl-butyl)-3-{3-[1-(2-morpholin-4-yl-ethyl)-1H-pyrazol-4-yl]-pyrido[2,3-b]pyrazin-6-yl}-urea] |
| 3 | 563 | 208 to 210 °C | Cn1cc(-c2cnc3ccc(NC(=O)NCCCC(C)(C)c4ccccc4)nc3n2)cn1 [Compound 169, 1-(4-Methyl-4-phenyl-pentyl)-3-[3-(1-methyl-1H-pyrazol-4-yl)-pyrido[2,3-b]pyrazin-6-yl]-urea] |
| 4 | 149 | 185 to 188 °C | CCCn1cc(-c2cnc3ccc(NC(=O)N[C@H](C)CCCc4ccccc4)nc3n2)cn1 [Compound 170, 1-((R)-1-Methyl-4-phenyl-butyl)-3-[3-(1-propyl-1H-pyrazol-4-yl)-pyrido[2,3-b]pyrazin-6-yl]-urea] |
| 4 | – | 274 to 276 °C | C[C@H](CCCc1ccccc1)NC(=O)Nc1ccc2ncc(-c3cn[nH]c3)nc2n1 [Compound 171, 1-((R)-1-Methyl-4-phenyl-butyl)-3-[3-(1H-pyrazol-4-yl)-pyrido[2,3-b]pyrazin-6-yl]-urea] |
| 5 | – | 204 to 206 °C | O=C(NCCCCc1ccccc1)Nc1ccc2ncc(N3CCCC3)nc2n1 [Compound 172, 1-(4-Phenyl-butyl)-3-(3-pyrrolidin-1-yl-pyrido[2,3-b]pyrazin-6-yl)-urea] |
| 5 | – | 187 to 190 °C | C[C@H](CCCc1ccccc1)NC(=O)Nc1ccc2ncc(N3CCCC3)nc2n1 [Compound 173, 1-((R)-1-Methyl-4-phenyl-butyl)-3-(3-pyrrolidin-1-yl-pyrido[2,3-b]pyrazin-6-yl)-urea] |
| 6 | – | 200 to 202 °C | O=C(NCCCCc1ccccc1)Nc1ccc2ncc(N3CCOCC3)nc2n1 [Compound 176, 1-(3-Morpholin-4-yl-pyrido[2,3-b]pyrazin-6-yl)-3-(4-phenyl-butyl)-urea] |
| 6 | – | 266 to 269 °C | Cc1n[nH]c(C)c1-c1cnc2ccc(NC(=O)N[C@H](C)CCCc3ccccc3)nc2n1 [Compound 177, 1-[3-(3,5-Dimethyl-1H-pyrazol-4-yl)-pyrido[2,3-b]pyrazin-6-yl]-3-((R)-1-methyl-4-phenyl-butyl)-urea] |
| 6 | – | 210 to 211 °C | COc1ccc(-c2cnc3ccc(NC(=O)NCCCCc4ccccc4)nc3n2)cc1OC [Compound 178, 1-[3-(3,4-Dimethoxy-phenyl)-pyrido[2,3-b]pyrazin-6-yl]-3-(4-phenyl-butyl)-urea] |
| 6 | – | 137 to 138 °C | COc1ccccc1-c1cnc2ccc(NC(=O)N[C@H](C)CCCc3ccccc3)nc2n1 [Compound 179, 1-[3-(2-Methoxy-phenyl)-pyrido[2,3-b]pyrazin-6-yl]-3-((R)-1-methyl-4-phenyl-butyl)-urea] |
| 4 | – | 261 °C (dec.) | C[C@H](CCCc1ccccc1)NC(=O)Nc1ccc2ncc(-c3cccc(C(=O)O)c3)nc2n1 [Compound 196, 3-{6-[3-((R)-1-Methyl-4-phenyl-butyl)-ureido]-pyrido[2,3-b]pyrazin-3-yl}-benzoic acid] |
| 5 | – | 230 to 232 °C | N[C@@H](Cc1ccc(-c2cnc3ccc(NC(=O)NCCCCc4ccccc4)nc3n2)cc1)C(=O)O [Compound 197, (S)-2-Amino-3-(4-{6-[3-(4-phenyl-butyl)-ureido]-pyrido[2,3-b]pyrazin-3-yl}-phenyl)-propionic acid] |
| 3 | – | 254 to 256 °C | O=C(NCCCCc1ccccc1)Nc1ccc2ncc(-c3cccc(C(=O)O)c3)nc2n1 [Compound 198, 3-{6-[3-(4-Phenyl-butyl)-ureido]-pyrido[2,3-b]pyrazin-3-yl}-benzoic acid] |
| 39 | 888 | 192 to 194 °C | O=C(NCCCCc1ccccc1)Nc1ccc2ncc(-c3ccc(OCCOCCO)cc3)nc2n1 [Compound 201, 1-(3-{4-[2-(2-Hydroxy-ethoxy)-ethoxy]-phenyl}-pyrido[2,3-b]pyrazin-6-yl)-3-(4-phenyl-butyl)-urea] |

| SMILES | IC50 [1] [nM] | EC50 [2] [nM] | melting point |
| --- | --- | --- | --- |
| O=C(NCCCCc1ccccc1)Nc1ccc2ncc(-c3ccc(OP(=O)(O)O)cc3)nc2n1 [Compound 165, Phosphoric acid mono-(4-{6-[3-(4-phenyl-butyl)-ureido]-pyrido[2,3-b]pyrazin-3-yl}-phenyl) ester] | 3 | 3190 | 202 °C |
